{
  "source": "paper PMC8808744",
  "about": "(ACS chemical biology, 2019)",
  "key": {"Slt": {"target": "Slt (Pseudomonas aeruginosa, UniProt Q9HZI6)", "sequence (Q9HZI6 25-642 limits assumed)": "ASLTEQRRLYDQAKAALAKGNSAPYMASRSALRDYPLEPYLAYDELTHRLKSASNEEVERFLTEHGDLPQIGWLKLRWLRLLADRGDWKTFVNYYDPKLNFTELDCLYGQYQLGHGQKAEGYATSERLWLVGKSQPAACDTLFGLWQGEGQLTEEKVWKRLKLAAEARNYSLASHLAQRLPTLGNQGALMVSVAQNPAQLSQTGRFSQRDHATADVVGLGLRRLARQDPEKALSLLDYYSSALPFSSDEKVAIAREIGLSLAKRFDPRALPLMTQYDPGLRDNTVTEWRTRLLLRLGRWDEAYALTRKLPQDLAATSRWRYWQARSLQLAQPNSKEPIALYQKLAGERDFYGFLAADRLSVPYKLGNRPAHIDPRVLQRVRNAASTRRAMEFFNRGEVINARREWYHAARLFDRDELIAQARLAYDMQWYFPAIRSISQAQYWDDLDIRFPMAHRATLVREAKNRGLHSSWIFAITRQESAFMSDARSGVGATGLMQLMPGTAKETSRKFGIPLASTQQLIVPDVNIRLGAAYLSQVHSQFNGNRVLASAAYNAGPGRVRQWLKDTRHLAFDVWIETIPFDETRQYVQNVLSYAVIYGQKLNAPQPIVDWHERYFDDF", "experiment": "biochemical", "assay_type": "binding"}, "MltDsol": {"target": "MltDsol (Pseudomonas aeruginosa, UniProt Q9I2T2)", "sequence (Q9I2T2 32-534 limits assumed)": "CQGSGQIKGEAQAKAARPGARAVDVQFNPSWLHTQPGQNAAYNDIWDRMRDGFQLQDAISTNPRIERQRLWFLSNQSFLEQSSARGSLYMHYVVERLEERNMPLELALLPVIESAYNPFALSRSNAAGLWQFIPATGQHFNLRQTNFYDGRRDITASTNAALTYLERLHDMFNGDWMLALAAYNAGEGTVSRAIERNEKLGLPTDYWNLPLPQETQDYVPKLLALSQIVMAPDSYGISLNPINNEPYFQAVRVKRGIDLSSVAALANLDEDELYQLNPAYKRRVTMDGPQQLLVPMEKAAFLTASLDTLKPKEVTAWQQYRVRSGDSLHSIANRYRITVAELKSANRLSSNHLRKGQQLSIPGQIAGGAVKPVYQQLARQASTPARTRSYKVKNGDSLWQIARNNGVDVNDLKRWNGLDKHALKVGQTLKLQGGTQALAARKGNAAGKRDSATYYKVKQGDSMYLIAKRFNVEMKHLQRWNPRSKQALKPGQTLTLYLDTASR", "experiment": "biochemical", "assay_type": "binding"}, "Ec MltGsol": {"target": "Ec MltGsol (Escherichia coli, UniProt P28306)", "sequence (P28306 25-340 with tags or gaps limits assumed)": "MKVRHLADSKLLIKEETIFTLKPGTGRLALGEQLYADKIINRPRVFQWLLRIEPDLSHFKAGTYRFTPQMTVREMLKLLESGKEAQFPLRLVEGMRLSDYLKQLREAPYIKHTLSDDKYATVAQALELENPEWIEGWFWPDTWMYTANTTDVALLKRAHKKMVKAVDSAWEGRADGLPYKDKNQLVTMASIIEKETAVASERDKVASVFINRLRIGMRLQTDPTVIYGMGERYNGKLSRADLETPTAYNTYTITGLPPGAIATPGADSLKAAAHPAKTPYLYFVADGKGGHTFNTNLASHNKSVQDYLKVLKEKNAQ", "experiment": "Dissociation constant by non-denaturing mass spectrometry, E. coli MltGsol", "assay_type": "binding"}, "SltB1": {"target": "SltB1 (Pseudomonas aeruginosa, UniProt Q9HX24)", "sequence (Q9HX24 34-340 limits assumed)": "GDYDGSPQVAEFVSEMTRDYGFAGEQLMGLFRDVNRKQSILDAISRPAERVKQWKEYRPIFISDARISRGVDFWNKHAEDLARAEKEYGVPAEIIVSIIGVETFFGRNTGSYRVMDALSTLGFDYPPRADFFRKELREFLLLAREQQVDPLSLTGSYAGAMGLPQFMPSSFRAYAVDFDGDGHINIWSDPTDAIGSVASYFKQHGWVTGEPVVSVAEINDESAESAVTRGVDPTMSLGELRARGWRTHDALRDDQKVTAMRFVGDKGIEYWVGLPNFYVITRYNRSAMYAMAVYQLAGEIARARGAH", "experiment": "biochemical", "assay_type": "binding"}, "P. aeruginosa PAO1 [1]": {"tested_on": "P. aeruginosa PAO1", "assay_type": "cell-based, Pseudomonas aeruginosa"}, "P. aeruginosa PAO1 [2]": {"tested_on": "P. aeruginosa PAO1", "experiment": "MIC against parent strain PAO1", "assay_type": "cell-based", "details": "Pseudomonas aeruginosa"}, "[3]": {"tested_on": "wild-type P. aeruginosa PAO1", "experiment": "Growth-curve assay in liquid medium", "assay_type": "cell-based, Pseudomonas aeruginosa", "details": "CAZ at 0.28 μg mL^−1, MEM at 0.14 μg mL^−1 (sub-MIC)"}},
  "data": [
    {"smiles": "CC(=O)N[C@H]1[C@H](O[C@H]2C[C@@H](C(=O)NCCS(=O)(=O)O)N[C@@H]2CO)O[C@H](CO)[C@@H](OS(=O)(=O)O)[C@@H]1O", "note": "[Bulgecin A]", "values": [
      {"measurement": "Kd", "setting": "Slt", "value": "8.5 ± 1.1", "unit": "µM"},
      {"measurement": "Kd", "setting": "MltDsol", "value": "1.4 ± 0.3", "unit": "µM"},
      {"measurement": "Kd", "setting": "Ec MltGsol", "value": "24 ± 5.1", "unit": "µM"},
      {"measurement": "Kd", "setting": "SltB1", "value": "160 ± 21", "unit": "µM"},
      {"measurement": "recovery of CAZ/bulgecin A-damaged bacteria", "setting": "P. aeruginosa PAO1 [1]", "value": "delayed recovery"}
    ]},
    {"smiles": "CC(C)(O/N=C(\\C(=O)N[C@@H]1C(=O)N2C(C(=O)[O-])=C(C[n+]3ccccc3)CS[C@H]12)c1csc(N)n1)C(=O)O", "note": "[CAZ, Ceftazidime]", "values": [
      {"measurement": "MIC", "setting": "P. aeruginosa PAO1 [2]", "value": 0.5, "unit": "µg/mL"},
      {"measurement": "growth of wild-type PAO1 with β-lactam alone", "setting": "[3]", "value": "normal growth"}
    ]},
    {"smiles": "C[C@@H](O)[C@H]1C(=O)N2C(C(=O)O)=C(S[C@@H]3CN[C@H](C(=O)N(C)C)C3)[C@H](C)[C@H]12", "note": "[MEM, Meropenem]", "values": [
      {"measurement": "MIC", "setting": "P. aeruginosa PAO1 [2]", "value": 0.5, "unit": "µg/mL"},
      {"measurement": "growth of wild-type PAO1 with β-lactam alone", "setting": "[3]", "value": "normal growth"}
    ]}
  ]
}
